Assay results from patent publication US4921850A, “3-propenylcephem derivative” (Eisai Co., Ltd., priority 1986, dated 1990).
≈ marks a conversion by molar mass, not a printed value.

What was measured:
Assay in all cases: Anti-bacterial activity (MIC), agar dilution
Assay type in all cases: cell-based
[1] = test system: Pseud. aeruginosa EP-01; conditions: Pseudomonas aeruginosa, EP01, 18 h, Pseud. aeruginosa EP-01; agar dilution, about 10^6 CFU/ml, 18 hours, 37° C.; read-out: MIC
Experimental: (§1) MIC (μg/ml) were determined by an agar dilution method [Chemotherapy (Japan), 29, 76-79, 1981]. Overnight cultures of the bacterial strains in Mueller-Hinton broth were diluted to final concentration of about 10^6 CFU/ml, and 5 μl of each bacterial suspension was spotted onto Mueller-Hinton agar plates that contained twofold serial dilutions of antibiotics. MICs were measured after incubation for 18 hours at 37° C.

[2] = test system: Staph. aureus 209-P; conditions: Staphylococcus aureus, 209P, 18 h, Staph. aureus 209-P; agar dilution, about 10^6 CFU/ml, 18 hours, 37° C.; read-out: MIC
Experimental: as §1

[3] = test system: Morganella morganii EP-14; conditions: Morganella morganii, EP14, 18 h, about 10^6 CFU/ml, 37° C., read-out: MIC
Experimental: as §1

[4] = test system: Kleb. pneumoniae EK-6; conditions: Klebsiella pneumoniae, EK6, 18 h, Kleb. pneumoniae EK-6; agar dilution, about 10^6 CFU/ml, 18 hours, 37° C.; read-out: MIC
Experimental: as §1

[5] = test system: Escher. coli NIHJ; conditions: Escherichia coli, 18 h, Escher. coli NIHJ; agar dilution, about 10^6 CFU/ml, 18 hours, 37° C.; read-out: MIC
Experimental: as §1

[6] = test system: Ser. marcescens ES-75; conditions: Serratia marcescens, ES75, 18 h, Ser. marcescens ES-75; agar dilution, about 10^6 CFU/ml, 18 hours, 37° C.; read-out: MIC
Experimental: as §1

SMILES	MIC [1] [µg/mL]	MIC [2] [µg/mL]	MIC [3] [µg/mL]	MIC [4] [µg/mL]	MIC [5] [µg/mL]	MIC [6] [µg/mL]
NC(=O)N1CC[N+](C/C=C/C2=C(C(=O)[O-])N3C(=O)[C@@H](NC(=O)/C(=N\OCF)c4nsc(N)n4)[C@H]3SC2)(CC(O)CO)CC1 (stereo partly drawn) [Example 30]	1.56 (≈ 2.42 µM)	0.4 (≈ 0.621 µM)	0.05 (≈ 0.0777 µM)	0.05 (≈ 0.0777 µM)	0.05 (≈ 0.0777 µM)	0.2 (≈ 0.311 µM)
NC(=O)C[N+]1(C/C=C/C2=C(C(=O)[O-])N3C(=O)[C@@H](NC(=O)/C(=N\OCF)c4nsc(N)n4)[C@H]3SC2)CCN(C(N)=O)CC1 [Example 31]	1.56 (≈ 2.49 µM)	0.4 (≈ 0.638 µM)	≤ 0.025	≤ 0.025	0.05 (≈ 0.0798 µM)	0.1 (≈ 0.16 µM)
NC(=O)NCC[N+]1(C/C=C/C2=C(C(=O)[O-])N3C(=O)[C@@H](NC(=O)/C(=N\OCF)c4nsc(N)n4)[C@H]3SC2)CCN(C(N)=O)CC1 [Example 32]	1.56 (≈ 2.38 µM)	0.2 (≈ 0.305 µM)	≤ 0.025	≤ 0.025	≤ 0.025	0.05 (≈ 0.0763 µM)
Nc1nc(/C(=N/OCF)C(=O)N[C@@H]2C(=O)N3C(C(=O)[O-])=C(/C=C/C[N+]4(CC(O)CO)CCOCC4)CS[C@H]23)ns1 (stereo partly drawn) [Example 38]	1.56 (≈ 2.59 µM)	0.4 (≈ 0.665 µM)	0.1 (≈ 0.166 µM)	0.05 (≈ 0.0831 µM)	0.1 (≈ 0.166 µM)	0.2 (≈ 0.332 µM)
NC(=O)C[N+]1(C/C=C/C2=C(C(=O)[O-])N3C(=O)[C@@H](NC(=O)/C(=N\OCF)c4nsc(N)n4)[C@H]3SC2)CCC(C(N)=O)CC1 (stereo partly drawn) [Example 40]	0.8 (≈ 1.28 µM)	0.4 (≈ 0.639 µM)	≤ 0.025	≤ 0.025	≤ 0.025	≤ 0.025
Nc1nc(/C(=N/OCF)C(=O)N[C@@H]2C(=O)N3C(C(=O)[O-])=C(/C=C/C[N+]4(CCO)CC=C(C=NO)CC4)CS[C@H]23)ns1 (stereo partly drawn) [Example 42]	1.56 (≈ 2.55 µM)	0.2 (≈ 0.328 µM)	≤ 0.025	0.05 (≈ 0.0819 µM)	≤ 0.025	≤ 0.025
NC(=O)C1=CC[N+](C/C=C/C2=C(C(=O)[O-])N3C(=O)[C@@H](NC(=O)/C(=N\OCF)c4nsc(N)n4)[C@H]3SC2)(CCO)CC1 (stereo partly drawn) [Example 43]	0.8 (≈ 1.31 µM)	0.2 (≈ 0.328 µM)	≤ 0.025	≤ 0.025	≤ 0.025	≤ 0.025
CC[N+](C)(C/C=C/C1=C(C(=O)[O-])N2C(=O)[C@@H](NC(=O)/C(=N\OCF)c3nsc(N)n3)[C@H]2SC1)CCO (stereo partly drawn) [Example 44]	1.56 (≈ 2.87 µM)	0.4 (≈ 0.736 µM)	0.05 (≈ 0.092 µM)	≤ 0.025	0.05 (≈ 0.092 µM)	0.1 (≈ 0.184 µM)
CC[N+](C)(CC#N)C/C=C/C1=C(C(=O)[O-])N2C(=O)[C@@H](NC(=O)/C(=N\OCF)c3nsc(N)n3)[C@H]2SC1 (stereo partly drawn) [Example 45]	0.8 (≈ 1.49 µM)	0.4 (≈ 0.743 µM)	≤ 0.025	≤ 0.025	≤ 0.025	0.1 (≈ 0.186 µM)

The next lines start with the values.

MIC [1] [µg/mL]	MIC [2] [µg/mL]	MIC [3] [µg/mL]	MIC [4] [µg/mL]	MIC [5] [µg/mL]	MIC [6] [µg/mL]	SMILES
0.8 (≈ 1.23 µM)	0.4 (≈ 0.616 µM)	≤ 0.025	≤ 0.025	≤ 0.025	0.1 (≈ 0.154 µM)	Nc1nc(/C(=N/OCF)C(=O)N[C@@H]2C(=O)N3C(C(=O)[O-])=C(/C=C/C[N+]4(CCO)CCN(S(N)(=O)=O)CC4)CS[C@H]23)ns1 [Example 29]
0.8 (≈ 1.37 µM)	0.4 (≈ 0.684 µM)	0.05 (≈ 0.0855 µM)	≤ 0.025	0.05 (≈ 0.0855 µM)	0.1 (≈ 0.171 µM)	NC(=O)C[N+]1(C/C=C/C2=C(C(=O)[O-])N3C(=O)[C@@H](NC(=O)/C(=N\OCF)c4nsc(N)n4)[C@H]3SC2)CCOCC1 [Example 35]
1.56 (≈ 2.54 µM)	0.2 (≈ 0.326 µM)	0.05 (≈ 0.0815 µM)	≤ 0.025	0.05 (≈ 0.0815 µM)	0.1 (≈ 0.163 µM)	NC(=O)NCC[N+]1(C/C=C/C2=C(C(=O)[O-])N3C(=O)[C@@H](NC(=O)/C(=N\OCF)c4nsc(N)n4)[C@H]3SC2)CCOCC1 [Example 36]
1.56 (≈ 2.73 µM)	0.2 (≈ 0.35 µM)	0.05 (≈ 0.0875 µM)	≤ 0.025	0.05 (≈ 0.0875 µM)	0.1 (≈ 0.175 µM)	Nc1nc(/C(=N/OCF)C(=O)N[C@@H]2C(=O)N3C(C(=O)[O-])=C(/C=C/C[N+]4(CCO)CCOCC4)CS[C@H]23)ns1 [Example 37]
1.56 (≈ 2.66 µM)	0.2 (≈ 0.342 µM)	0.05 (≈ 0.0854 µM)	≤ 0.025	0.05 (≈ 0.0854 µM)	0.1 (≈ 0.171 µM)	CC(O)C[N+]1(C/C=C/C2=C(C(=O)[O-])N3C(=O)[C@@H](NC(=O)/C(=N\OCF)c4nsc(N)n4)[C@H]3SC2)CCOCC1 (stereo partly drawn) [Example 39]
